The conditions of series [1]: cited from earlier work.
A further series has as its system HDFa cells. Kind of series: SeaHorse XF analyzer OCR and ECAR. To be noted: normoxic and hypoxic conditions, 5.5 mM and 22 mM glucose. The class given is cell-based, human. The text has this:
Environmental influencers (e.g., MIMs or Epi-shifters) may also be identified by changes in cellular energetics. One example of the measurement of cellular energetics are the real-time measures of the consumption of molecular oxygen and/or the change in pH of the media of a cell culture. For example, the ability of a potential epi-shifter to modulate the metabolic state of a cell may be analyzed using, for example, the XF24 Analyzer (Seahorse, Inc.). This technology allows for real time detection of oxygen and pH changes in a monolayer of cells in order to evaluate the bioenergetics of a cell microenvironment. The XF24 Analyzer measures and compares the rates of oxygen consumption (OCR), which is a measure of aerobic metabolism, and extracellular acidification (ECAR), which is a measure of glycolysis, both key indicators of cellular energetics.
(SeaHorse Biosciences Inc, North Billerica, Mass.).
In this experiment, the OCR and extracellular acidification rate (ECAR) in normal cells lines were obtained in the presence and absence of CoQ10 to determine baseline values. It was observed that in its native nutrient environment, the basal OCR rates in normal cells lines are different, and are usually a function of the physiological roles of the cells in the body.
For example, one set of experiments were conducted using the non-cancerous cell line HDFa, which is a human adult dermal fibroblast cell line. Fibroblasts are cells that primarily synthesize and secrete extracellular matrix (ECM) components and collagen that form the structural framework (stroma) for tissues. In addition, fibroblasts are known to serve as tissue ambassadors of numerous functions such as wound healing and localized immnomodulation. Under normal physiological conditions, energy requirements in normal fibroblasts are met using a combination of glycolysis and oxidative phosphorylation—the glycolysis providing the necessary nutrients for synthesis of ECM.
FIGS. 29 and 30 describe the OCR in HDFa and HASMC cells grown in physiologically normal glucose (about 4.6 mM) and high glucose (hyperglycemic) conditions.

For a further series, the system named is MCF-7 cells. Kind of series: Nexin assay for early and late apoptosis (flow cytometry). It counts as cell-based. Particulars: 50 μM and 100 μM Q10, 24 hours. The source says:
(§1) The 7AAD dye will enter into cells with permeabilized cell membranes; primarily those cells that are in late apoptosis. Annexin-V-PE is a dye that binds to Phosphotidyl serine, which is exposed on the outer surface of the plasma membrane in early apoptotic cells. The Nexin reagent thus can be used to differentiate between different populations of apoptotic cells in a flow cytometer.

For another series, the system named is HepG2 cells. The description is as above. Particulars: 50 μM Q10, 24 hours. It counts as cell-based.
Text: as §1

In a further series the test system is PaCa2 cells. The description is as above. The class given is cell-based. Particulars: 50 μM and 100 μM Q10, 24 hours.
Text: as §1

Series [2] has as its system Succinate Dehydrogenase B (SDHB). Kind of series: Western blot of Succinate Dehydrogenase subunit B in mitochondrial preparations. The class given is cell-based. To be noted: mitochondrial preparations of cancer cells. The method, then: The above blots were stripped by incubating for 30 minutes with methanol, followed by two 10 minute washes with TBS-T, then 30 minutes of incubation with Stripping buffer at 50 deg C., and followed by two washes with 100 ml or more of TBS-T for 30′ each. The blots were scanned in laser scanner to check for complete stripping. The blots were activated with methanol for 5 seconds, washed with water for 5 minutes, and TBST for 15 minutes. The blots were blocked for 1 hour with 5% blocking reagent in TBS-T at room temperature and then washed 3 times with TBS-T (1×-15′; 2×5′ each) and probed with the primary antibody for PKM2, SDHB or SDHC in 5% BSA in TBS-T by incubation overnight at 4 deg C. with gentle shaking. The primary antibody for SDHC (ABNOVA H00006391-M02; antimouse) was at 1:500 dilution. The primary antibody for SDHB was from Abcam ab4714-200; antimouse; at 1:1000 dilution. The primary antibody for Pyruvate Kinase M2 (PKM2) was from Novus Biologicals H00005315-DOIP; antirabbit; at 1:500 dilution. After incubation with primary antibodies, the membranes were washed 3 times with TBS-T (1×-15′; 2×5′ each) and probed with the secondary antibody (SDHB & C antimouse; and PKM2 antirabbit; 1:10,000 dilution) for 1 hon the orbital tilting shaker at room temperature. […]

A further series deals with Bcl2. Kind of series: Bcl2 level after administration of CoQ-10 in the presence of VEGF. It counts as cell-based. The source says:
The term “Multidimensional Intracellular Molecule (MIM)”, is an isolated version or synthetically produced version of an endogenous molecule that is naturally produced by the body and/or is present in at least one cell of a human. A MIM is characterized by one or more, two or more, three or more, or all of the following functions. MIMs are capable of entering a cell, and the entry into the cell includes complete or partial entry into the cell, as long as the biologically active portion of the molecule wholly enters the cell. MIMs are capable of inducing a signal transduction and/or gene expression mechanism within a cell. MIMs are multidimensional in that the molecules have both a therapeutic and a carrier, e.g., drug delivery, effect. MIMs also are multidimensional in that the molecules act one way in a disease state and a different way in a normal state. […] Preferably, MIMs selectively act in cells of a disease state, and have substantially no effect in (matching) cells of a normal state. Preferably, MIMs selectively renders cells of a disease state closer in phenotype, metabolic state, genotype, mRNA/protein expression level, etc. to (matching) cells of a normal state.

A further series deals with SCC cells. Kind of series: Real-time PCR Heat Shock Protein Array. It counts as cell-based. Particulars: 100 μM Q10. The source says:
The control cells were untreated cells.
Heat Shock Arrays were run for SCC cells and the data of regulated genes is summarized below in Table 13.

In another series the test system is SKBr3 cells. Kind of series: Nexin assay for early and late apoptosis (flow cytometry). To be noted: 50 μM or 100 μM Q10, 24 hours. It counts as cell-based, human.
Text: as §1

Where two headings read alike, the source gives them in different places.

These results are taken from patent publication US20210002725A1, “METHODS FOR THE DIAGNOSIS OF METABOLIC DISORDERS USING EPIMETABOLIC SHIFTERS, MULTIDIMENSIONAL INTRACELLULAR MOLECULES, OR ENVIRONMENTAL INFLUENCES” (Berg LLC, priority 2009, published 2021).

Turning to `COC1=C(OC)C(=O)C(C/C=C(\C)CC/C=C(\C)CC/C=C(\C)CC/C=C(\C)CC/C=C(\C)CC/C=C(\C)CC/C=C(\C)CC/C=C(\C)CC/C=C(\C)CCC=C(C)C)=C(C)C1=O` [Q10, Coenzyme Q10], the “CoQ10 in the reduced form” value in series [1] (blood (plasma), Bhagavan) is ~96%; in series [1] (heart) it was “about 61%”; in series [1] (intestine) it was ~95%; in [1] (kidney) it was ~75%; in series [1] (liver), ~95%; in series [1] (muscle), ~65%. Also, the “molecule found in the reduced form (Q10H2)” value in series [1] (human plasma, Ruiz-Jimenez 2007) is listed as 90%. Also, the ECAR values entry in the series with HDFa cells was “minimal influence on ECAR values”. The apoptotic population entry with MCF-7 cells is listed as “increase only in early apoptotic population”. The “increase of gated population in late apoptotic and early apoptotic stages” value with HepG2 cells was “about 20%”. Further, in the series with PaCa2 cells, the “increase in early and late apoptotic cells” value is 5-10 % of gated cells. The “SDH protein levels in the mitochondrion” value in series [2] is reported as “increase SDH protein levels”. For the same compound, in the series on Bcl2 (melanoma cell, in the presence of VEGF), the “level of Bcl2” value is on record as “decreased level of Bcl2”. The “levels of Bcl2” value in the series on Bcl2 (normal fibroblast, co-administration with VEGF) is “no effect”. Besides, in the series on SCC cells, the “Regulation (mRNA) at 6 hours” value is “Down regulated”. In addition, the “Regulation (mRNA) at 24 hours” value in the series with SCC cells is on record as “Down regulated”. Further, in the series on SKBr3 cells, the “early and late apoptosis” value was “did not show any significant increases of early and late apoptosis”.
